From the NIST ThermoML archive (doi:10.1016/j.jct.2007.04.002)

Columns and labels:
[1] = 101.33 kPa, Liquid, Not reported.
[2] = excess molar enthalpy (molar enthalpy of mixing); xn = mol fraction of the nth substance listed; details: 101 kPa, Liquid, Calvet calorimetry

FC(F)(F)C(F)(F)C(F)(F)C(F)(F)C(F)(F)C(F)(F)F [perfluorohexane]
Details | molar volume [m3/mol]
[1], 288.05 K | 0.0001982

FC(F)(F)C(F)(F)C(F)(F)C(F)(F)C(F)(F)C(F)(F)C(F)(F)F [hexadecafluoroheptane] + CCCCCC
[2], 298.15 K
Details | excess molar enthalpy [kcal/mol]
x1 = 0.05 | 0.15
x1 = 0.1 | 0.258
x1 = 0.15 | 0.335
x1 = 0.2 | 0.39
x1 = 0.25 | 0.429
x1 = 0.3 | 0.456
x1 = 0.35 | 0.474
x1 = 0.4 | 0.487
x1 = 0.45 | 0.495
x1 = 0.5 | 0.497
x1 = 0.55 | 0.495
x1 = 0.6 | 0.485
x1 = 0.65 | 0.467
x1 = 0.7 | 0.439
x1 = 0.75 | 0.4
x1 = 0.8 | 0.348
x1 = 0.85 | 0.281
x1 = 0.9 | 0.201
x1 = 0.95 | 0.107
x1 = 1 | 0

C1CCCCC1 [cyclohexane]
Details | molar volume [m3/mol]
[1], 298.15 K | 0.0001086

CCCCCC [hexane] + FC(F)(F)C(F)(F)C(F)(F)C(F)(F)C(F)(F)C(F)(F)C(F)(F)F
Details | excess molar enthalpy [kcal/mol]
[2], 298.15 K, x2 = 0 | 0

FC(F)(F)C(F)(F)C(F)(F)C(F)(F)C(F)(F)C(F)(F)F [perfluorohexane] + CCCCCC(C)C
[2], x1 = 1
Details | excess molar enthalpy [kcal/mol]
288.05 K | 0
298.15 K | 0

CCCCCCC [heptane] + FC(F)(F)C(F)(F)C(F)(F)C(F)(F)C(F)(F)C(F)(F)F
Details | excess molar enthalpy [kcal/mol]
[2], 298.15 K, x2 = 0 | 0

FC(F)(F)C(F)(F)C(F)(F)C(F)(F)C(F)(F)C(F)(F)F [perfluorohexane] + C1CCCCC1
[2], 298.15 K
Details | excess molar enthalpy [kcal/mol]
x1 = 0.05 | 0.177
x1 = 0.1 | 0.301
x1 = 0.15 | 0.385
x1 = 0.2 | 0.44
x1 = 0.25 | 0.475
x1 = 0.3 | 0.498
x1 = 0.35 | 0.513
x1 = 0.4 | 0.522
x1 = 0.45 | 0.528
x1 = 0.5 | 0.53
x1 = 0.55 | 0.528
x1 = 0.6 | 0.519
x1 = 0.65 | 0.503
x1 = 0.7 | 0.476
x1 = 0.75 | 0.436
x1 = 0.8 | 0.382
x1 = 0.85 | 0.311
x1 = 0.9 | 0.224
x1 = 0.95 | 0.12
x1 = 1 | 0

CCCCCC [hexane] + FC(F)(F)C(F)(F)C(F)(F)C(F)(F)C(F)(F)C(F)(F)C(F)(F)C(F)(F)F
Details | excess molar enthalpy [kcal/mol]
[2], 298.15 K, x2 = 0 | 0

C1CCCCC1 [cyclohexane] + FC(F)(F)C(F)(F)C(F)(F)C(F)(F)C(F)(F)C(F)(F)F
Details | excess molar enthalpy [kcal/mol]
[2], 298.15 K, x2 = 0 | 0

CCCCCC(C)C [2-methylheptane] + FC(F)(F)C(F)(F)C(F)(F)C(F)(F)C(F)(F)C(F)(F)F
excess molar enthalpy [kcal/mol], [2]
Details | 288.05 K | 298.15 K
x2 = 0 | 0 | 0
x2 = 0.05 | 0.124 | 0.129
x2 = 0.1 | 0.223 | 0.231
x2 = 0.15 | 0.3 | 0.313
x2 = 0.2 | 0.359 | 0.376
x2 = 0.25 | 0.404 | 0.425
x2 = 0.3 | 0.438 | 0.462
x2 = 0.35 | 0.462 | 0.488
x2 = 0.4 | 0.478 | 0.506
x2 = 0.45 | 0.488 | 0.516
x2 = 0.5 | 0.491 | 0.52
x2 = 0.55 | 0.488 | 0.516
x2 = 0.6 | 0.478 | 0.505
x2 = 0.65 | 0.461 | 0.487
x2 = 0.7 | 0.436 | 0.46
x2 = 0.75 | 0.401 | 0.422
x2 = 0.8 | 0.354 | 0.372
x2 = 0.85 | 0.293 | 0.307
x2 = 0.9 | 0.216 | 0.226
x2 = 0.95 | 0.119 | 0.124

FC(F)(F)C(F)(F)C(F)(F)C(F)(F)C(F)(F)C(F)(F)F [perfluorohexane] + CCCCCCC
[2], 298.15 K
Details | excess molar enthalpy [kcal/mol]
x1 = 0.05 | 0.135
x1 = 0.1 | 0.24
x1 = 0.15 | 0.321
x1 = 0.2 | 0.382
x1 = 0.25 | 0.429
x1 = 0.3 | 0.463
x1 = 0.35 | 0.487
x1 = 0.4 | 0.504
x1 = 0.45 | 0.513
x1 = 0.5 | 0.516
x1 = 0.55 | 0.513
x1 = 0.6 | 0.503
x1 = 0.65 | 0.485
x1 = 0.7 | 0.459
x1 = 0.75 | 0.421
x1 = 0.8 | 0.371
x1 = 0.85 | 0.307
x1 = 0.9 | 0.225
x1 = 0.95 | 0.124
x1 = 1 | 0

FC(F)(F)C(F)(F)C(F)(F)C(F)(F)C(F)(F)C(F)(F)F [perfluorohexane] + CCCCC
[2], 293.15 K
Details | excess molar enthalpy [kcal/mol]
x1 = 0.05 | 0.127
x1 = 0.1 | 0.225
x1 = 0.15 | 0.3
x1 = 0.2 | 0.357
x1 = 0.25 | 0.399
x1 = 0.3 | 0.431
x1 = 0.35 | 0.453
x1 = 0.4 | 0.467
x1 = 0.45 | 0.475
x1 = 0.5 | 0.476
x1 = 0.55 | 0.47
x1 = 0.6 | 0.457
x1 = 0.65 | 0.435
x1 = 0.7 | 0.405
x1 = 0.75 | 0.365
x1 = 0.8 | 0.315
x1 = 0.85 | 0.253
x1 = 0.9 | 0.18
x1 = 0.95 | 0.0954
x1 = 1 | 0

FC(F)(F)C(F)(F)C(F)(F)C(F)(F)C(F)(F)C(F)(F)C(F)(F)C(F)(F)F [octadecafluorooctane] + CCCCCC
[2], 298.15 K
Details | excess molar enthalpy [kcal/mol]
x1 = 0.05 | 0.183
x1 = 0.1 | 0.303
x1 = 0.15 | 0.379
x1 = 0.2 | 0.422
x1 = 0.25 | 0.445
x1 = 0.3 | 0.455
x1 = 0.35 | 0.456
x1 = 0.4 | 0.453
x1 = 0.45 | 0.448
x1 = 0.5 | 0.44
x1 = 0.55 | 0.43
x1 = 0.6 | 0.415
x1 = 0.65 | 0.394
x1 = 0.7 | 0.366
x1 = 0.75 | 0.327
x1 = 0.8 | 0.279
x1 = 0.85 | 0.22
x1 = 0.9 | 0.152
x1 = 0.95 | 0.0767
x1 = 1 | 0

FC(F)(F)C(F)(F)C(F)(F)C(F)(F)C(F)(F)C(F)(F)F [perfluorohexane] + CCCCCC
[2], 298.15 K
Details | excess molar enthalpy [kcal/mol]
x1 = 0.05 | 0.133
x1 = 0.1 | 0.235
x1 = 0.15 | 0.313
x1 = 0.2 | 0.372
x1 = 0.25 | 0.416
x1 = 0.3 | 0.45
x1 = 0.35 | 0.473
x1 = 0.4 | 0.49
x1 = 0.45 | 0.5
x1 = 0.5 | 0.503
x1 = 0.55 | 0.5
x1 = 0.6 | 0.489
x1 = 0.65 | 0.469
x1 = 0.7 | 0.441
x1 = 0.75 | 0.401
x1 = 0.8 | 0.35
x1 = 0.85 | 0.285
x1 = 0.9 | 0.205
x1 = 0.95 | 0.11
x1 = 1 | 0

FC(F)(F)C(F)(F)C(F)(F)C(F)(F)C(F)(F)F [perfluoropentane] + CCCCCC
[2], 293.15 K
Details | excess molar enthalpy [kcal/mol]
x1 = 0.05 | 0.127
x1 = 0.1 | 0.224
x1 = 0.15 | 0.298
x1 = 0.2 | 0.352
x1 = 0.25 | 0.392
x1 = 0.3 | 0.42
x1 = 0.35 | 0.439
x1 = 0.4 | 0.451
x1 = 0.45 | 0.456
x1 = 0.5 | 0.455
x1 = 0.55 | 0.449
x1 = 0.6 | 0.436
x1 = 0.65 | 0.416
x1 = 0.7 | 0.388
x1 = 0.75 | 0.352
x1 = 0.8 | 0.305
x1 = 0.85 | 0.248
x1 = 0.9 | 0.178
x1 = 0.95 | 0.0956
x1 = 1 | 0

CCCCCC [hexane] + FC(F)(F)C(F)(F)C(F)(F)C(F)(F)C(F)(F)F
Details | excess molar enthalpy [kcal/mol]
[2], 293.15 K, x2 = 0 | 0

CCCCCCCC [octane] + FC(F)(F)C(F)(F)C(F)(F)C(F)(F)C(F)(F)C(F)(F)F
Details | excess molar enthalpy [kcal/mol]
[2], 298.15 K, x2 = 0 | 0

CCCCCC [hexane] + FC(F)(F)C(F)(F)C(F)(F)C(F)(F)C(F)(F)C(F)(F)F
Details | excess molar enthalpy [kcal/mol]
[2], 298.15 K, x2 = 0 | 0

CCCCCC(C)C [2-methylheptane]
[1]
Details | molar volume [m3/mol]
288.05 K | 0.0001626
298.15 K | 0.0001636

CCCCC [pentane] + FC(F)(F)C(F)(F)C(F)(F)C(F)(F)C(F)(F)C(F)(F)F
Details | excess molar enthalpy [kcal/mol]
[2], 293.15 K, x2 = 0 | 0

FC(F)(F)C(F)(F)C(F)(F)C(F)(F)C(F)(F)C(F)(F)F [perfluorohexane] + CCCCCCCC
[2], 298.15 K
Details | excess molar enthalpy [kcal/mol]
x1 = 0.05 | 0.137
x1 = 0.1 | 0.24
x1 = 0.15 | 0.315
x1 = 0.2 | 0.368
x1 = 0.25 | 0.404
x1 = 0.3 | 0.428
x1 = 0.35 | 0.443
x1 = 0.4 | 0.452
x1 = 0.45 | 0.457
x1 = 0.5 | 0.458
x1 = 0.55 | 0.457
x1 = 0.6 | 0.452
x1 = 0.65 | 0.442
x1 = 0.7 | 0.426
x1 = 0.75 | 0.401
x1 = 0.8 | 0.363
x1 = 0.85 | 0.309
x1 = 0.9 | 0.234
x1 = 0.95 | 0.133
x1 = 1 | 0
